Test results: patent US20180298332A1, “Microfluidic Model of the Blood Brain Barrier” (EMULATE, Inc., priority 2015, published 2018)

How the values were obtained:
neurons seeded in chip = format: cell-based, human
[1] = tested on: cell monolayers with tight junctions; details: cited from earlier work
[2] = tested on: BMECs seeded on a microfluidic device; experiment: Paracellular permeability assay with Dextran-FITC on chip; format: cell-based, human; details: TNF-alpha exposure; Dextran-FITC 4 KDa added to bottom channel, measured in top channel; FIG. 14B
Excerpt: Brain microvascular endothelial cells (BMECs) constitute the blood-brain barrier (BBB) which forms a dynamic interface between the blood and the central nervous system (CNS) in vivo. This highly specialized interface restricts paracellular diffusion of fluids and solutes including chemicals, toxins and drugs from entering the brain. In this example, fluorescein sodium is used in a paracellular permeability assay of the BMECs seeded on a microfluidic device.
Albumin or Dextran conjugated to a fluorescent probe (e.g., FITC or TRITC) are frequently used to monitor changes in leakage, and thus barrier function. In this case, Dextran-FITC, a green fluorescent molecule of 4 KDa, or sodium fluorescein (a 0.3 KDa molecule), was added to the bottom (“blood side”) channel. Paracellular permeability was calculated by measuring the permeability of the fluorescent molecule on the Top (“brain side”) channel. […] FIG. 14B involves TNF-alpha exposure, but the readout is membrane permeability as measured by Dextran-FITC.

iBMEC barrier function = experiment: TEER measurement on prototype TEER chips under flow; format: cell-based, human; details: chip under flow, then exposure to TNFa; FIG. 14A
Description: Cells were plated on tall channel PDMS chips equipped with incorporated gold electrodes on each channel (see FIG. 13A). Post seeding of BMECs, transendothelial electrical resistance was measured by connecting the electrodes to an EVOM2 voltohmmeter (see FIG. 13B). […] The “damaged” chip was a failure due to the TEER-Chips being a prototype.
Higher TEER values generally indicate a tighter barrier, which is typically desirable for a blood-brain barrier.

NC1=N[C@H](O)[C@H]2[C@H]3O[C@]4(O)O[C@@H]([C@@H](O)[C@@]2(N1)[C@@H]4O)[C@]3(O)CO [tetrodotoxin]
neuronal calcium flux activity (neurons seeded in chip): ablates this activity

Lucifer Yellow
Permeability (Papp) [1]: 0.5 to 1.2 ×10⁻⁶ cm/s

TNFa
membrane permeability as measured by Dextran-FITC [2]: increase in permeability | iBMEC barrier function (TEER) after exposure of the chips (iBMEC barrier function): weakening of barrier function
